Data set [1] in a line: Cmax in Sprague-Dawley rat at 5 mg/kg, po measured up to 24 hrs by LC/MS/MS analysis. In kind it is ADME, organism-based. The arrangement: time < 24 hrs, dose 5 mg/kg, route po. The settings on record: in vivo.
The nature of data set [2]: AUC (0 to t) in Sprague-Dawley rat at 5 mg/kg, po measured up to 24 hrs by LC/MS/MS analysis. In kind it is ADME, organism-based. The arrangement: time < 24 hrs, dose 5 mg/kg, route po. The settings on record: in vivo.
In data set [3] the test system is MCF7. The data set can be described thus: Antiproliferative activity against human MCF7 cells assessed as inhibition of cell growth measured after 6 days by cell titre glo luminescence assay. The settings on record: MCF7, 144 h.
Data set [4] concerns the target T1, Estrogen receptor (Homo sapiens, UniProt P03372).
T1 sequence (P03372 whole entry): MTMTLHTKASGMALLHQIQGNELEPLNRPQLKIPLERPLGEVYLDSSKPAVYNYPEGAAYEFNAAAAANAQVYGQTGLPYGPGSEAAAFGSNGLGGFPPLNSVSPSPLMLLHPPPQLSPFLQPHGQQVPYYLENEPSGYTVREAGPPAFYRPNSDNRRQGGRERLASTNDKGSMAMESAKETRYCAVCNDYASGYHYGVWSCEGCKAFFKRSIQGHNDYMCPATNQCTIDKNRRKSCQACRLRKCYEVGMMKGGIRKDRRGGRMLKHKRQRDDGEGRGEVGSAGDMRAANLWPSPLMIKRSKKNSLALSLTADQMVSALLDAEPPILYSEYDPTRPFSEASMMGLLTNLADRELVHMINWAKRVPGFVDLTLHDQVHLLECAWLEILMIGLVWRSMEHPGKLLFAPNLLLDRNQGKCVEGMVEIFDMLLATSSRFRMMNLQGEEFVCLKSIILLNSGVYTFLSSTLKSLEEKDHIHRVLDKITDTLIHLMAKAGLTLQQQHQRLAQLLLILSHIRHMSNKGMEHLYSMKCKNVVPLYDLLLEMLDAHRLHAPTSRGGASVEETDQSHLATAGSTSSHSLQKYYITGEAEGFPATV
The experiment in a line: Induction of ERalpha degradation in human MCF7 cells incubated for 24 hrs by Western blot analysis. It is filed as cell-based.

Data set [5] deals with T1, Estrogen receptor. The data set can be described thus: Antagonist activity at ERalpha expressed in HEK293/Gal4 cells incubated for 24 hrs in presence of estradiol by luciferase reporter gene assay. It is filed as cell-based. A general note: In a reporter assay the amount or activity of a reporter protein is the signal.
The target in data set [6] is Voltage-gated inwardly rectifying potassium channel KCNH2 (Homo sapiens, UniProt Q12809). The experiment in a line: Inhibition of human ERG potassium channel expressed in CHO cells by patch-clamp assay. In kind it is toxicity, cell-based.
The nature of data set [7]: Cmax in Sprague-Dawley rat at 10 mg/kg, po measured up to 24 hrs by LC/MS/MS analysis. In kind it is ADME, organism-based. The arrangement: time < 24 hrs, dose 10 mg/kg, route po. To be noted: in vivo.
The nature of data set [8]: AUC (0 to t) in Sprague-Dawley rat at 10 mg/kg, po measured up to 24 hrs by LC/MS/MS analysis. In kind it is ADME, organism-based. The arrangement: time < 24 hrs, dose 10 mg/kg, route po. To be noted: in vivo.
Data set [9] deals with Estrogen receptor (Homo sapiens, UniProt P03372, Y537S). The data set can be described thus: Antagonist activity at ERalpha Y537S mutant degradation in human SK-BR-3 cells incubated for 24 hrs in presence of beta-estradiol by luciferase gene assay. It is filed as cell-based.
The target of data set [10] is Estrogen receptor (Homo sapiens, UniProt P03372, D538G). The data set can be described thus: Antagonist activity at ERalpha D538G mutant degradation in human SK-BR-3 cells incubated for 24 hrs in presence of beta-estradiol by luciferase gene assay. It is filed as cell-based.
The next data set addresses Estrogen receptor beta (Homo sapiens, UniProt Q92731). The experiment in a line: Antagonist activity at ERbeta expressed in HEK293/Gal4 cells incubated for 24 hrs in presence of di-arylpropionitrile by luciferase reporter gene assay.
Data set [11] relates to MCF7. The data set can be described thus: Anti-hyperplasia activity in […] Sprague-Dawley rat assessed as appearance of tall columnar phenotype in epithelial cells at 60 mg/kg, po once daily for 3 days by hematoxylin and eosin staining based assay. In kind it is functional, organism-based. To be noted: time 3.0 day. Background: Xenograft models place foreign cells or tissue in a host animal.

Active and inactive are the calls of the source. No cut-off for these calls is given here.

Sequence of Voltage-gated inwardly rectifying potassium channel KCNH2 (Q12809 whole entry): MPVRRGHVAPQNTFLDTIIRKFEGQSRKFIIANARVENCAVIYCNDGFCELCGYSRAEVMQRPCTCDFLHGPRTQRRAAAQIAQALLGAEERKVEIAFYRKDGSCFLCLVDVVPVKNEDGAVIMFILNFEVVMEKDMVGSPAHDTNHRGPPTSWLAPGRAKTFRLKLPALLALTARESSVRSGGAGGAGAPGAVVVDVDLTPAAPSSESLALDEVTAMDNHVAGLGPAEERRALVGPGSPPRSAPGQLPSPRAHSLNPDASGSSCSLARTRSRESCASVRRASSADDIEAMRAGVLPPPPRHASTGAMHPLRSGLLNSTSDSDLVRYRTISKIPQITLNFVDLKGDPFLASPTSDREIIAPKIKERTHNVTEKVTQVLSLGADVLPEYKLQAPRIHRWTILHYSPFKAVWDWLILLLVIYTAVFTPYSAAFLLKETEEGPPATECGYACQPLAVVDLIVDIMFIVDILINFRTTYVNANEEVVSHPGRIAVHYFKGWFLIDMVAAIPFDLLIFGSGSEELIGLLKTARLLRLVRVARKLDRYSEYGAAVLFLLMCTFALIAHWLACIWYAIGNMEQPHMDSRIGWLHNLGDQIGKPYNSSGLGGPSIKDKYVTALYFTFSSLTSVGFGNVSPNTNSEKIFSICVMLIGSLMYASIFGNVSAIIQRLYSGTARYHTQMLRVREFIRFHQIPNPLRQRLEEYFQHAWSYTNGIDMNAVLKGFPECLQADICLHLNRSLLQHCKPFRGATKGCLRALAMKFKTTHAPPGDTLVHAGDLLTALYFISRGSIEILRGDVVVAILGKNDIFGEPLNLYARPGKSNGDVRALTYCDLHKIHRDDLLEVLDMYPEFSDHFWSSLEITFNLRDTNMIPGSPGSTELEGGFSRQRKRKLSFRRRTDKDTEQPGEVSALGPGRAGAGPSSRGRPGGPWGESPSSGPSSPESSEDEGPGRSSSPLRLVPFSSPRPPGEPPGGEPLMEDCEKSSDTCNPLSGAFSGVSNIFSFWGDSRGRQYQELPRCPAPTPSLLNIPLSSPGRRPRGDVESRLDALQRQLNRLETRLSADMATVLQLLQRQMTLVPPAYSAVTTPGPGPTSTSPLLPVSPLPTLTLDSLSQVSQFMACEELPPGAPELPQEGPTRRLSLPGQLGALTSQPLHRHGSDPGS
Sequence of Estrogen receptor (Homo sapiens, UniProt P03372, D538G) (P03372 whole entry D538G, the tested form may be a part): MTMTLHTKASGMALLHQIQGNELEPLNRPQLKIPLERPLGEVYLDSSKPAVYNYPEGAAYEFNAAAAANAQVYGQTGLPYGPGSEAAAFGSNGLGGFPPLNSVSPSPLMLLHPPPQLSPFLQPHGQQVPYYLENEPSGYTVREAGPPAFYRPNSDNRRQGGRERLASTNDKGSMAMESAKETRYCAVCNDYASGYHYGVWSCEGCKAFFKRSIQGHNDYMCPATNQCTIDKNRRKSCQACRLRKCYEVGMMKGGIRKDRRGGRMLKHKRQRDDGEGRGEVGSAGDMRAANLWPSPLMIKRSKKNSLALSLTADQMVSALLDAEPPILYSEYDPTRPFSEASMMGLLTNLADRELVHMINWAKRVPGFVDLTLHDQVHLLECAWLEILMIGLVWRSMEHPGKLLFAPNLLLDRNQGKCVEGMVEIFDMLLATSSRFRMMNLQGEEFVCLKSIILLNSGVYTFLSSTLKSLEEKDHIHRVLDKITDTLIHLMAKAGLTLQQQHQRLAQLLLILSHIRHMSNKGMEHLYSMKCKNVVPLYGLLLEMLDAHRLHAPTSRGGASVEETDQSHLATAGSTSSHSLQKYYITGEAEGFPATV
Sequence of Estrogen receptor (Homo sapiens, UniProt P03372, Y537S) (P03372 whole entry Y537S): as the sequence (P03372 whole entry D538G, the tested form may be a part) above, with Y537S, G538D counted along it
Sequence of Estrogen receptor beta (Q92731 whole entry, the tested form may be a part): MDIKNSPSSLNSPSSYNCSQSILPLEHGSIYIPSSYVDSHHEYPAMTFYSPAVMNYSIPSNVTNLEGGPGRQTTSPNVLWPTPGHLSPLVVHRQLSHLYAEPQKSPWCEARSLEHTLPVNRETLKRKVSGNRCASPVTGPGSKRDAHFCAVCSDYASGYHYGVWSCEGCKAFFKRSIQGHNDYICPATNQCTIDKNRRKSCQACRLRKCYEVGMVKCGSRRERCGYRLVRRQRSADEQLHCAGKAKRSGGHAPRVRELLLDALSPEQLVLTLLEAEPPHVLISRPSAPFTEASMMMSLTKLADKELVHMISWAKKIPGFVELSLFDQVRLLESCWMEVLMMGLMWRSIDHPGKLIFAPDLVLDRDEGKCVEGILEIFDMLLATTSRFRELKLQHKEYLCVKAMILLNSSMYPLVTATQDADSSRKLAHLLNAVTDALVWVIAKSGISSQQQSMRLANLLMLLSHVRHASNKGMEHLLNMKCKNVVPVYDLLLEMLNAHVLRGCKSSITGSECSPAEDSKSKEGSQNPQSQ

As usually defined, the Cmax is the maximum level reached in the sampled fluid or tissue. Usually AUC(0-t) stands for exposure summed from dosing to a finite time, without extrapolation to infinity. Lower therefore signals less exposure. For the compound `CC(F)(F)c1cc(-c2sc3cc(O)ccc3c2Oc2ccc(/C=C/C(=O)O)cc2)ccc1F`, in data set [1], the concentration peaked (Cmax) at 283 ng/mL. In data set [2], this compound came in with an area under the curve AUC(0-t) at 24 h of 585 ng·h/mL.
As usually defined, the IC50 is the midpoint of a concentration-inhibition curve. One may read the EC50 as the concentration at which the effect is half-maximal. High values mean weaker potency, low ones greater potency. With `COc1cc(Oc2c(-c3cc(F)c(F)cc3C(C)(F)F)sc3c2ccc2[nH]ncc23)ccc1NC1CN(CCCF)C1`, the values for the 50% inhibitory concentration (IC50) (in the data set on MCF7 [3]; on Estrogen receptor [5]; in data set [6]) were 1.7 nM, 2.5 nM and 15600 nM, respectively. Moreover, on Estrogen receptor [4], a half-maximal response (EC50) required 2.6 nM.
Regarding `CC(F)(F)c1cc(Cl)ccc1-c1sc2c(ccc3[nH]ncc32)c1Oc1ccc(NC2CN(CCCF)C2)cc1`, a half-maximal response at Estrogen receptor [4] (EC50) required 1.2 nM. In [7], this compound displayed a Cmax of 228 ng/mL. For the same compound, in data set [8], the AUC(0-t) at 24 h was determined as 3090 ng·h/mL. Further, the IC50 was 13.1 nM on Estrogen receptor [9] and 16.6 nM at Estrogen receptor [10].
Compound `FCCCN1CC(Oc2ccc(Oc3c(-c4ccc(F)cc4CC(F)(F)F)sc4c3ccc3[nH]ncc34)cc2F)C1` had an IC50 in data set [6] above 40000 nM.
Take `COc1cc(Oc2c(-c3ccc(F)cc3C(C)(C)F)sc3c2ccc2[nH]ncc23)ccc1OC1CN(CCCF)C1`: the IC50 in the data set on MCF7 [3] is 0.5 nM; on Estrogen receptor [5], 0.8 nM; in data set [6] it was above 40000 nM. The compound also registered a concentration for a half-maximal effect (EC50) at Estrogen receptor [4] of 1.4 nM. Moreover, the highest level in data set [7] (Cmax) was 47 ng/mL. Also, in [8], the AUC(0-t) at 24 h is 264 ng·h/mL.
For the compound `O=C(O)c1ccc2c(c1)CCCC(c1ccc(Cl)cc1Cl)=C2c1ccc(O[C@H]2CCN(CCCF)C2)cc1` [AMCENESTRANT], the IC50 in the data set with MCF7 [3] was determined as 9.1 nM; on Estrogen receptor beta it was 8.6 nM.
On to `CC(F)(F)c1cc(F)ccc1-c1sc2c(ccc3[nH]ncc32)c1Oc1ccc(NC2CN(CCCF)C2)c(F)c1`, for which the IC50 with MCF7 [3] came out at 0.8 nM; at Estrogen receptor [5], 1.1 nM; in [6], 27500 nM. On Estrogen receptor [4], this compound yielded an EC50 of 1.3 nM.
`CC(C)(F)c1cc(F)ccc1-c1sc2c(ccc3[nH]ncc32)c1Oc1ccc(OC2CN(CCCF)C2)c(F)c1` gave a half-maximal inhibitory concentration (IC50) in data set [6] above 40000 nM.
The compound `CC(C)(F)c1cc(F)ccc1-c1sc2c(ccc3[nH]ncc32)c1Oc1ccc(NC2CN(CCCF)C2)cc1` gave an IC50 in [6] of 6200 nM.
Turning to `COc1cc(Oc2c(-c3ccc(F)cc3C(C)(F)F)sc3c2ccc2[nH]ncc23)ccc1OC1CN(CCCF)C1`, the IC50 is 0.9 nM in the data set on MCF7 [3], 0.6 nM on Estrogen receptor [5] and above 40000 nM in data set [6]. Also, the EC50 on Estrogen receptor [4] is 0.4 nM.
Take `CC(F)(F)c1cc(F)c(F)cc1-c1sc2c(ccc3[nH]ncc32)c1Oc1ccc(OC2CN(CCCF)C2)c(F)c1`: the IC50 was 2.8 nM in the data set with MCF7 [3], 5.3 nM at Estrogen receptor [5] and above 40000 nM in data set [6]. Also, at Estrogen receptor [4], the EC50 turned out to be 3.9 nM. This compound gave a Cmax in data set [7] of 132 ng/mL. In data set [8], this compound registered an AUC(0-t) at 24 h of 1280 ng·h/mL.
Regarding `CC/C(=C(\c1ccc(O)cc1)c1ccc(OCCN(C)C)cc1)c1ccccc1`, the outcome with MCF7 [11] was Active.
`COc1cc(Oc2c(-c3ccc(F)cc3C(C)(F)F)sc3c2ccc2[nH]ncc23)ccc1NC1CN(CCCF)C1` showed a half-maximal inhibitory concentration (IC50) in data set [6] of 11500 nM.
Same read-out and setting: next, `CC(F)(F)c1cc(F)c(F)cc1-c1sc2c(ccc3[nH]ncc32)c1Oc1ccc(NC2CN(CCCF)C2)cc1`: 7400 nM.

Values taken from ChEMBL document CHEMBL5154828 (J Med Chem, 2022).
